Reference: PubChem BioAssay (NCI)
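Cells were grown in 96-well plates and exposed to each compound for 48 hours at five concentrations; endpoints were interpolated linearly between bracketing concentrations, or set to the highest concentration if not reached. The concentration for 50% growth inhibition is given as GI50. TGI denotes the concentration required for complete inhibition of growth.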

Columns and labels:
Experiment in all cases: NCI-60 cell line screen, 48 h
DU-145 prostate = tested on: DU-145 prostate
MALME-3M melanoma = tested on: MALME-3M melanoma
EKVX NSCLC = tested on: EKVX NSCLC
U251 CNS = tested on: U251 CNS
UACC-257 melanoma = tested on: UACC-257 melanoma
COLO 205 colon = tested on: COLO 205 colon
NCI-H460 lung = tested on: NCI-H460 lung
SK-MEL-2 melanoma = tested on: SK-MEL-2 melanoma
PC-3 prostate = tested on: PC-3 prostate
NCI-H23 lung = tested on: NCI-H23 lung
MDA-MB-231 breast = tested on: MDA-MB-231 breast
HCT-116 colon = tested on: HCT-116 colon
SN12C renal = tested on: SN12C renal
K-562 leukemia = tested on: K-562 leukemia
A549 NSCLC = tested on: A549 NSCLC
OVCAR-8 ovarian = tested on: OVCAR-8 ovarian
SR leukemia = tested on: SR leukemia
A498 renal = tested on: A498 renal
HCC-2998 colon = tested on: HCC-2998 colon
M14 melanoma = tested on: M14 melanoma
SF-268 CNS = tested on: SF-268 CNS
MCF7 breast = tested on: MCF7 breast
BT-549 breast = tested on: BT-549 breast
TK-10 renal = tested on: TK-10 renal
SF-295 CNS = tested on: SF-295 CNS
RXF 393 renal = tested on: RXF 393 renal
786-0 renal = tested on: 786-0 renal
SK-MEL-5 melanoma = tested on: SK-MEL-5 melanoma
NCI/ADR-RES ovarian = tested on: NCI/ADR-RES ovarian
SK-OV-3 ovarian = tested on: SK-OV-3 ovarian
CAKI-1 renal = tested on: CAKI-1 renal
HL-60(TB) leukemia = tested on: HL-60(TB) leukemia
HS 578T breast = tested on: HS 578T breast
IGROV1 ovarian = tested on: IGROV1 ovarian
OVCAR-4 ovarian = tested on: OVCAR-4 ovarian
NCI-H522 lung = tested on: NCI-H522 lung
OVCAR-5 ovarian = tested on: OVCAR-5 ovarian
HCT-15 colon = tested on: HCT-15 colon
UACC-62 melanoma = tested on: UACC-62 melanoma
MDA-MB-435 = tested on: MDA-MB-435
HOP-62 NSCLC = tested on: HOP-62 NSCLC
T-47D breast = tested on: T-47D breast
SF-539 CNS = tested on: SF-539 CNS
NCI-H226 lung = tested on: NCI-H226 lung
MOLT-4 leukemia = tested on: MOLT-4 leukemia
HT29 colon = tested on: HT29 colon
CCRF-CEM leukemia = tested on: CCRF-CEM leukemia
OVCAR-3 ovarian = tested on: OVCAR-3 ovarian
SK-MEL-28 melanoma = tested on: SK-MEL-28 melanoma
SNB-75 CNS = tested on: SNB-75 CNS
RPMI-8226 leukemia = tested on: RPMI-8226 leukemia
HOP-92 NSCLC = tested on: HOP-92 NSCLC
SNB-19 CNS = tested on: SNB-19 CNS
ACHN renal = tested on: ACHN renal
UO-31 renal = tested on: UO-31 renal
KM12 colon = tested on: KM12 colon
LOX IMVI melanoma = tested on: LOX IMVI melanoma
SW-620 colon = tested on: SW-620 colon

SMILES: Cc1ccc(-c2n[nH]c(=O)n2N2C(=O)C=CC2=O)cc1
- TGI (DU-145 prostate): > 100 µM
- TGI (MALME-3M melanoma): > 100 µM
- TGI (EKVX NSCLC): > 100 µM
- TGI (U251 CNS): > 100 µM
- TGI (UACC-257 melanoma): > 100 µM
- TGI (COLO 205 colon): > 100 µM
- TGI (NCI-H460 lung): > 100 µM
- TGI (SK-MEL-2 melanoma): > 100 µM
- TGI (PC-3 prostate): > 100 µM
- TGI (NCI-H23 lung): > 100 µM
- TGI (MDA-MB-231 breast): > 100 µM
- TGI (HCT-116 colon): > 100 µM
- TGI (SN12C renal): > 100 µM
- TGI (K-562 leukemia): > 100 µM
- TGI (A549 NSCLC): > 100 µM
- TGI (OVCAR-8 ovarian): > 100 µM
- TGI (SR leukemia): > 100 µM
- TGI (A498 renal): > 100 µM
- TGI (HCC-2998 colon): > 100 µM
- TGI (M14 melanoma): > 100 µM
- TGI (SF-268 CNS): > 100 µM
- TGI (MCF7 breast): > 100 µM
- TGI (BT-549 breast): > 100 µM
- TGI (TK-10 renal): > 100 µM
- TGI (SF-295 CNS): > 100 µM
- TGI (RXF 393 renal): > 100 µM
- TGI (786-0 renal): > 100 µM
- TGI (SK-MEL-5 melanoma): > 100 µM
- TGI (NCI/ADR-RES ovarian): > 100 µM
- TGI (SK-OV-3 ovarian): > 100 µM
- TGI (CAKI-1 renal): > 100 µM
- TGI (HL-60(TB) leukemia): > 100 µM
- TGI (HS 578T breast): > 100 µM
- TGI (IGROV1 ovarian): > 100 µM
- TGI (OVCAR-4 ovarian): > 100 µM
- TGI (NCI-H522 lung): > 100 µM
- TGI (OVCAR-5 ovarian): > 100 µM
- TGI (HCT-15 colon): > 100 µM
- TGI (UACC-62 melanoma): > 100 µM
- TGI (MDA-MB-435): > 100 µM
- TGI (HOP-62 NSCLC): > 100 µM
- TGI (T-47D breast): > 100 µM
- TGI (SF-539 CNS): > 100 µM
- TGI (NCI-H226 lung): > 100 µM
- TGI (MOLT-4 leukemia): > 100 µM
- TGI (HT29 colon): > 100 µM
- TGI (CCRF-CEM leukemia): > 100 µM
- TGI (OVCAR-3 ovarian): > 100 µM

SMILES: CCCN(CCC)c1ccc(/C=N/NC(=O)c2cccnc2)cc1
- GI50 (SK-MEL-28 melanoma): 33.6 µM
- TGI (SK-MEL-28 melanoma): > 100 µM
- GI50 (SNB-75 CNS): 22 µM
- TGI (SNB-75 CNS): 68.1 µM
- GI50 (DU-145 prostate): 36.1 µM
- TGI (DU-145 prostate): > 100 µM
- GI50 (MALME-3M melanoma): 41.8 µM
- TGI (MALME-3M melanoma): > 100 µM
- GI50 (EKVX NSCLC): 26.8 µM
- TGI (EKVX NSCLC): > 100 µM
- GI50 (U251 CNS): 26.9 µM
- TGI (U251 CNS): > 100 µM
- GI50 (UACC-257 melanoma): 31 µM
- TGI (UACC-257 melanoma): > 100 µM
- GI50 (RPMI-8226 leukemia): 80.5 µM
- TGI (RPMI-8226 leukemia): > 100 µM
- GI50 (COLO 205 colon): 31.5 µM
- TGI (COLO 205 colon): > 100 µM
- GI50 (NCI-H460 lung): 30.3 µM
- TGI (NCI-H460 lung): > 100 µM
- GI50 (HOP-92 NSCLC): 20.3 µM
- TGI (HOP-92 NSCLC): 64.8 µM
- GI50 (PC-3 prostate): 29.5 µM
- TGI (PC-3 prostate): > 100 µM
- GI50 (NCI-H23 lung): 36.1 µM
- TGI (NCI-H23 lung): > 100 µM
- GI50 (SNB-19 CNS): 53.8 µM
- TGI (SNB-19 CNS): > 100 µM
- GI50 (ACHN renal): 39.5 µM
- TGI (ACHN renal): > 100 µM
- GI50 (HCT-116 colon): 23.5 µM
- TGI (HCT-116 colon): > 100 µM
- GI50 (SN12C renal): 40.4 µM
- TGI (SN12C renal): > 100 µM
- GI50 (K-562 leukemia): 8.02 µM
- TGI (K-562 leukemia): > 100 µM
- GI50 (UO-31 renal): 43.3 µM
- TGI (UO-31 renal): > 100 µM
- GI50 (A549 NSCLC): 27.5 µM
- TGI (A549 NSCLC): > 100 µM
- GI50 (OVCAR-8 ovarian): 31.3 µM
- TGI (OVCAR-8 ovarian): > 100 µM
- GI50 (SR leukemia): 6.82 µM
- TGI (SR leukemia): > 100 µM
- GI50 (A498 renal): 10.2 µM
- TGI (A498 renal): 22.3 µM
- GI50 (HCC-2998 colon): 25 µM
- TGI (HCC-2998 colon): > 100 µM
- GI50 (SF-268 CNS): 31.2 µM
- TGI (SF-268 CNS): > 100 µM
- GI50 (MCF7 breast): 20.2 µM
- TGI (MCF7 breast): > 100 µM
- GI50 (KM12 colon): 20.3 µM
- TGI (KM12 colon): > 100 µM
- GI50 (LOX IMVI melanoma): 17.3 µM
- TGI (LOX IMVI melanoma): 58.5 µM
- GI50 (BT-549 breast): 30.7 µM
- TGI (BT-549 breast): > 100 µM
- GI50 (TK-10 renal): 32.4 µM
- TGI (TK-10 renal): > 100 µM
- GI50 (SF-295 CNS): 16.5 µM
- TGI (SF-295 CNS): 55.6 µM
- GI50 (RXF 393 renal): 19.2 µM
- TGI (RXF 393 renal): 42.1 µM
- GI50 (786-0 renal): 32.5 µM
- TGI (786-0 renal): 94.8 µM
- GI50 (SK-MEL-5 melanoma): 18.2 µM
- TGI (SK-MEL-5 melanoma): 42 µM
- GI50 (NCI/ADR-RES ovarian): 18 µM
- TGI (NCI/ADR-RES ovarian): > 100 µM
- GI50 (SW-620 colon): 18.1 µM
- TGI (SW-620 colon): > 100 µM
- GI50 (SK-OV-3 ovarian): 30.6 µM
- TGI (SK-OV-3 ovarian): > 100 µM
- GI50 (CAKI-1 renal): 30.1 µM
- TGI (CAKI-1 renal): > 100 µM
- GI50 (HL-60(TB) leukemia): 22.6 µM
- TGI (HL-60(TB) leukemia): 63.7 µM
- GI50 (HS 578T breast): 22 µM
- TGI (HS 578T breast): 87.1 µM
- GI50 (IGROV1 ovarian): 46.8 µM
- TGI (IGROV1 ovarian): > 100 µM
- GI50 (OVCAR-4 ovarian): 35.4 µM
- TGI (OVCAR-4 ovarian): > 100 µM
- GI50 (NCI-H522 lung): 16.6 µM
- TGI (NCI-H522 lung): 46.8 µM
- GI50 (OVCAR-5 ovarian): 38 µM
- TGI (OVCAR-5 ovarian): > 100 µM
- GI50 (HCT-15 colon): 19.8 µM
- TGI (HCT-15 colon): > 100 µM
- GI50 (UACC-62 melanoma): 34.7 µM
- TGI (UACC-62 melanoma): > 100 µM
- GI50 (MDA-MB-435): 3.63 µM
- TGI (MDA-MB-435): > 100 µM
- GI50 (HOP-62 NSCLC): 37.9 µM
- TGI (HOP-62 NSCLC): > 100 µM
- GI50 (T-47D breast): 28.1 µM
- TGI (T-47D breast): > 100 µM
- GI50 (SF-539 CNS): 18.8 µM
- TGI (SF-539 CNS): 61.4 µM
- GI50 (NCI-H226 lung): 47.6 µM
- TGI (NCI-H226 lung): > 100 µM
- GI50 (MOLT-4 leukemia): 31 µM
- TGI (MOLT-4 leukemia): > 100 µM
- GI50 (HT29 colon): 11 µM
- TGI (HT29 colon): 32 µM
- GI50 (CCRF-CEM leukemia): 37.1 µM
- TGI (CCRF-CEM leukemia): > 100 µM
- GI50 (OVCAR-3 ovarian): 20.1 µM
- TGI (OVCAR-3 ovarian): 45.3 µM
